Test results from PubChem BioAssay (NCI).
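Where inhibition never reached the appropriate level, the endpoint shown equals the highest concentration tested. Otherwise, values were interpolated linearly from a five-concentration, 48-hour dose response in 96-well plates. GI50 is the concentration that inhibits growth by half. TGI: concentration producing complete growth inhibition.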

Key:
Test in all cases: NCI tumour cell line growth inhibition, 48 h
OVCAR-5 ovarian = tested on: OVCAR-5 ovarian
SF-268 CNS = tested on: SF-268 CNS
MCF7 breast = tested on: MCF7 breast
CAKI-1 renal = tested on: CAKI-1 renal
NCI-H460 lung = tested on: NCI-H460 lung
HOP-92 NSCLC = tested on: HOP-92 NSCLC
SNB-19 CNS = tested on: SNB-19 CNS
HT29 colon = tested on: HT29 colon
UACC-257 melanoma = tested on: UACC-257 melanoma
IGROV1 ovarian = tested on: IGROV1 ovarian
PC-3 prostate = tested on: PC-3 prostate
SW-620 colon = tested on: SW-620 colon
SF-295 CNS = tested on: SF-295 CNS
HS 578T breast = tested on: HS 578T breast
A549 NSCLC = tested on: A549 NSCLC
TK-10 renal = tested on: TK-10 renal
MOLT-4 leukemia = tested on: MOLT-4 leukemia
T-47D breast = tested on: T-47D breast
HL-60(TB) leukemia = tested on: HL-60(TB) leukemia
NCI-H522 lung = tested on: NCI-H522 lung
SF-539 CNS = tested on: SF-539 CNS
MDA-MB-435 = tested on: MDA-MB-435
SNB-75 CNS = tested on: SNB-75 CNS
NCI-H23 lung = tested on: NCI-H23 lung
OVCAR-4 ovarian = tested on: OVCAR-4 ovarian
M14 melanoma = tested on: M14 melanoma
HCT-15 colon = tested on: HCT-15 colon
CCRF-CEM leukemia = tested on: CCRF-CEM leukemia
UACC-62 melanoma = tested on: UACC-62 melanoma
RXF 393 renal = tested on: RXF 393 renal
K-562 leukemia = tested on: K-562 leukemia
NCI/ADR-RES ovarian = tested on: NCI/ADR-RES ovarian
UO-31 renal = tested on: UO-31 renal
OVCAR-3 ovarian = tested on: OVCAR-3 ovarian
ACHN renal = tested on: ACHN renal
NCI-H226 lung = tested on: NCI-H226 lung
SK-MEL-5 melanoma = tested on: SK-MEL-5 melanoma
MALME-3M melanoma = tested on: MALME-3M melanoma
SK-MEL-28 melanoma = tested on: SK-MEL-28 melanoma
SK-MEL-2 melanoma = tested on: SK-MEL-2 melanoma
786-0 renal = tested on: 786-0 renal
SR leukemia = tested on: SR leukemia
LOX IMVI melanoma = tested on: LOX IMVI melanoma
BT-549 breast = tested on: BT-549 breast
HOP-62 NSCLC = tested on: HOP-62 NSCLC
HCC-2998 colon = tested on: HCC-2998 colon
OVCAR-8 ovarian = tested on: OVCAR-8 ovarian
KM12 colon = tested on: KM12 colon
SK-OV-3 ovarian = tested on: SK-OV-3 ovarian
EKVX NSCLC = tested on: EKVX NSCLC
MDA-MB-231 breast = tested on: MDA-MB-231 breast
SN12C renal = tested on: SN12C renal
DU-145 prostate = tested on: DU-145 prostate
A498 renal = tested on: A498 renal
U251 CNS = tested on: U251 CNS

Molecule C[C@@H](CO)[C@@H]1CCC=C2CC[C@]3(C)[C@H](CC[C@@H]4[C@@]5(C)CCCNC(C)(C)[C@@H]5CC[C@]43C)[C@H]21 has a GI50 (OVCAR-5 ovarian) of 3.18 µM, a TGI (OVCAR-5 ovarian) of 12.6 µM and a GI50 (SF-268 CNS) of 4.48 µM. It also gave a TGI (SF-268 CNS) of 19.5 µM, a GI50 (MCF7 breast) of 1.49 µM and a TGI (MCF7 breast) of 3.02 µM. The GI50 (CAKI-1 renal) was 1.89 µM, the TGI (CAKI-1 renal) was 4.25 µM and the GI50 (NCI-H460 lung) was 1.81 µM. It also gave a TGI (NCI-H460 lung) of 3.39 µM, a GI50 (HOP-92 NSCLC) of 1.87 µM and a TGI (HOP-92 NSCLC) of 8.71 µM. It also gave a GI50 (SNB-19 CNS) of 2.03 µM, a TGI (SNB-19 CNS) of 4.15 µM and a GI50 (HT29 colon) of 1.85 µM. It also gave a TGI (HT29 colon) of 4.49 µM, a GI50 (UACC-257 melanoma) of 2.59 µM and a TGI (UACC-257 melanoma) of 7.08 µM. It also gave a GI50 (IGROV1 ovarian) of 1.78 µM, a TGI (IGROV1 ovarian) of 3.41 µM and a GI50 (PC-3 prostate) of 2.97 µM. It also gave a TGI (PC-3 prostate) of 13.4 µM, a GI50 (SW-620 colon) of 1.86 µM and a TGI (SW-620 colon) of 3.62 µM. The GI50 (SF-295 CNS) was 1.66 µM, the TGI (SF-295 CNS) was 3.11 µM and the GI50 (HS 578T breast) was 2.08 µM. The TGI (HS 578T breast) was 5.19 µM, the GI50 (A549 NSCLC) was 2.24 µM and the TGI (A549 NSCLC) was 5.04 µM. For the same molecule, the GI50 (TK-10 renal) was 8.36 µM, the TGI (TK-10 renal) was 24.8 µM and the GI50 (MOLT-4 leukemia) was 2.5 µM. The TGI (MOLT-4 leukemia) was 7.27 µM, the GI50 (T-47D breast) was 2.38 µM and the TGI (T-47D breast) was 7.77 µM. For the same molecule, the GI50 (HL-60(TB) leukemia) was 1.98 µM, the TGI (HL-60(TB) leukemia) was 4.54 µM and the GI50 (NCI-H522 lung) was 1.85 µM. It also gave a TGI (NCI-H522 lung) of 3.86 µM, a GI50 (SF-539 CNS) of 3.48 µM and a TGI (SF-539 CNS) of 14.6 µM. It also gave a GI50 (MDA-MB-435) of 1.76 µM, a TGI (MDA-MB-435) of 3.53 µM and a GI50 (SNB-75 CNS) of 2.19 µM. The TGI (SNB-75 CNS) was 17.2 µM, the GI50 (NCI-H23 lung) was 3.94 µM and the TGI (NCI-H23 lung) was 14.3 µM. It also gave a GI50 (OVCAR-4 ovarian) of 1.98 µM, a TGI (OVCAR-4 ovarian) of 5.02 µM and a GI50 (M14 melanoma) of 2.31 µM. For the same molecule, the TGI (M14 melanoma) was 5.13 µM, the GI50 (HCT-15 colon) was 1.49 µM and the TGI (HCT-15 colon) was 2.99 µM. For the same molecule, the GI50 (CCRF-CEM leukemia) was 3.08 µM, the TGI (CCRF-CEM leukemia) was 13.9 µM and the GI50 (UACC-62 melanoma) was 1.73 µM. For the same molecule, the TGI (UACC-62 melanoma) was 3.18 µM, the GI50 (RXF 393 renal) was 2.39 µM and the TGI (RXF 393 renal) was 6.25 µM. It also gave a GI50 (K-562 leukemia) of 2.01 µM, a TGI (K-562 leukemia) of 6.73 µM and a GI50 (NCI/ADR-RES ovarian) of 2.05 µM. For the same molecule, the TGI (NCI/ADR-RES ovarian) was 4.45 µM, the GI50 (UO-31 renal) was 2.21 µM and the TGI (UO-31 renal) was 6.8 µM. The GI50 (OVCAR-3 ovarian) was 2.16 µM, the TGI (OVCAR-3 ovarian) was 4.87 µM and the GI50 (ACHN renal) was 2.45 µM. For the same molecule, the TGI (ACHN renal) was 6.52 µM, the GI50 (NCI-H226 lung) was 14.6 µM and the TGI (NCI-H226 lung) was 35.3 µM. The GI50 (SK-MEL-5 melanoma) was 1.77 µM, the TGI (SK-MEL-5 melanoma) was 3.18 µM and the GI50 (MALME-3M melanoma) was 1.71 µM. For the same molecule, the TGI (MALME-3M melanoma) was 3.36 µM, the GI50 (SK-MEL-28 melanoma) was 1.72 µM and the TGI (SK-MEL-28 melanoma) was 3.45 µM. It also gave a GI50 (SK-MEL-2 melanoma) of 2.08 µM, a TGI (SK-MEL-2 melanoma) of 4.29 µM and a GI50 (786-0 renal) of 1.93 µM. It also gave a TGI (786-0 renal) of 3.82 µM, a GI50 (SR leukemia) of 5.44 µM and a TGI (SR leukemia) greater than 100 µM. It also gave a GI50 (LOX IMVI melanoma) of 1.74 µM, a TGI (LOX IMVI melanoma) of 3.17 µM and a GI50 (BT-549 breast) of 5.11 µM. It also gave a TGI (BT-549 breast) of 24.9 µM, a GI50 (HOP-62 NSCLC) of 2.08 µM and a TGI (HOP-62 NSCLC) of 4.21 µM. The GI50 (HCC-2998 colon) was 1.62 µM, the TGI (HCC-2998 colon) was 3.11 µM and the GI50 (OVCAR-8 ovarian) was 2.02 µM. For the same molecule, the TGI (OVCAR-8 ovarian) was 4.1 µM, the GI50 (KM12 colon) was 1.97 µM and the TGI (KM12 colon) was 4.09 µM. For the same molecule, the GI50 (SK-OV-3 ovarian) was 12.8 µM, the TGI (SK-OV-3 ovarian) was 30.8 µM and the GI50 (EKVX NSCLC) was 4.18 µM. It also gave a TGI (EKVX NSCLC) of 17.3 µM, a GI50 (MDA-MB-231 breast) of 1.94 µM and a TGI (MDA-MB-231 breast) of 4.03 µM. The GI50 (SN12C renal) was 3.11 µM, the TGI (SN12C renal) was 12.5 µM and the GI50 (DU-145 prostate) was 3.36 µM. The TGI (DU-145 prostate) was 11.3 µM, the GI50 (A498 renal) was 5.41 µM and the TGI (A498 renal) was 23 µM. For the same molecule, the GI50 (U251 CNS) was 1.84 µM and the TGI (U251 CNS) was 3.46 µM.
